Usually EC50 stands for the concentration at which the effect is half-maximal.

Each structure is given as a SMILES string. Several values for one entry are separate records, joined by “and”; a condition that tells them apart may be missing. Equal entries are not always repeated. Where only a bound is given, the exact number is not on record here.

A short description of one experiment: Assay Measuring Activity of Test Compounds on Viral Production from HepAD38 Cells: HepAD38 cells grown in a T-150 flask (Corning, cat #: 430825) with Growth Medium (DMEM/F12 (1:1) (Hyclone, cat #: SH30023.02), 1× Pen/Strep (Invitrogen, cat #: 15140-122), 10% FBS (Tissue Culture Biologics, cat #: 101), 250 μg/mL G418 (Alfa Aesar, cat #: J62671), 1 μg/mL Tetracycline (Teknova, cat #: T3320)) were detached with 0.25% trypsin-EDTA to (Invitrogen, cat #: 25200-056). Tetracycline-free treatment medium (15 mL DMEM/F12 (1:1) 1× Pen/step, with 2% FBS, Tet-system approved (Clontech, cat #: 631106) were then added to mix, transferred into a 50 ml conical tube (Falcon, cat #: 21008-918,) and spun at 1300 rpm for 5 min. Pelleted cells were then re-suspended/washed with 50 mL of 1×DPBS (Invitrogen, cat #: 14190-136) 2 times and 50 mL treatment medium twice. HepAD38 cells were then re-suspended with 10 mL of treatment medium, syringed and counted. Wells of 96-well clear bottom TC plate (Corning, cat #: 3904,) were seeded at 50,000 cells/well in 180 μL of treatment medium, and 20 μL of either 10% DMSO (Sigma, cat #: D4540) as controls or a 10× solution of test compounds in 10% DMSO in treatment media was added for a final compound concentration starting at 10 μM, and plates were incubated in 5% CO2 incubator at 37° C. for 5 days.Subsequently viral load production was assayed by quantitative PCR (qPCR) of the HBV core sequence. PCR reaction mixture containing forward primers HBV-f 5′-CTGTGCCTTGGGTGGCTTT-3′ (IDT DNA), Reverse primers HBV-r 5′-[…]-3′ (IDT DNA), Fluorescent TaqMan™ Probes HBV-probe 5′-FAM/AGCTCCAAA/ZEN/[…]/3IABkFQ-3′ (IDT DNA), 10 μL/well of PerfeCTa® qPCR ToughMix® (Quanta Biosciences, Cat #: 95114-05K), and 6 μL/well of DEPC water (Alfa Aesar, cat #: J62087) was prepared. […] of supernatant was added to 16 μL of the reaction mixture in a qPCR plate (Applied Biosytems, Cat #: 4309849), sealed with a film (Applied Biosystems, Cat #: 4311971), centrifuged for a few seconds, and subsequently run on an Applied Biosystems VIIA7. The PCR mixture was incubated at 45° C. for 5 min, then 95° C. for 10 min, followed by 40 cycles of 10 seconds at 95° C. and 20 seconds at 60° C. Viral load was quantified against known HBV DNA standards by using ViiA™ 7 Software. Viral load in the supernatant from wells with treated cells were compared against viral load in supernatant from DMSO control wells (>3 per plate). Cell viability assay was performed with CellTiter-Glo Luminescent Cell Viability Assay (Promega, cat #: G7573) with modification. Mixed appropriate amount of CellTiter-Glo (CTG) 1×DPBS in a 1:1 ratio, added 100 uL of the mixture to each well followed completely removal of all supernatant in each well without touching cell surface. Incubated the plate at room temperature for 10 min on an orbital shaker, and then read the plate with a plate reader (TECAN M1000 or Envision).
Conditions: not given
In general terms: In qPCR the cycle at which signal appears reflects the starting amount.
Consider `COc1ccc([C@@H]2CC[C@H](c3nn(C)c(N)c3C(=O)Nc3ccc(F)c(Cl)c3)C2)cc1`, for which the EC50 is < 100 nM and in the range around 300 nM.
Turning to `Cn1nc(C2CC3CC(O)(CS(=O)(=O)NC4CC4)CC3C2)c(C(=O)Nc2ccc(F)c(Cl)c2)c1N` (centres undefined), the EC50 result was “in the range around 300 nM and < 100 nM”.
Same read-out and setting: with `COc1ccc([C@H]2CC[C@H](c3nn(C)c(N)c3C(=O)Nc3ccc(F)c(Cl)c3)C2)cc1` the figure was less than 100 nM.

The experiment is the same for the next values; noted with them: HePAD38.
`Cn1nc(C2CC3CC(C(=O)O)CC3C2)c(C(=O)Nc2ccc(F)c(Cl)c2)c1N` (centres undefined): the EC50 was less than 100 nM.
On the same count and under the same terms, the same measure for `Cn1nc([C@@H]2CC3CC(O)(CN4CCCCC4)C[C@H]3C2)c(C(=O)Nc2ccc(F)c(Cl)c2)c1N` (some centres undefined): “in the range around 300 nM”; for `Nc1[nH]nc(C2CC3CC(=O)CC3C2)c1C(=O)Nc1ccc(F)c(Cl)c1` (centres undefined): “in the range around 300 nM”.
Same read-out and setting: the same measure for `CCOC(=O)C=C1CC2CC(c3nn(C)c(N)c3C(=O)Nc3ccc(F)c(Cl)c3)CC2C1` (centres undefined): less than 100 nM.
Still for that read-out and setting: the same measure for `COc1cc(-c2c[nH]cn2)ccc1[C@@H]1CC[C@@H](c2nn(C)c(N)c2C(=O)Nc2ccc(F)c(Cl)c2)C1`: less than 100 nM.
Consider `Cn1nc(C2CC3CSCC3C2)c(C(=O)Nc2ccc(F)c(Cl)c2)c1N` (centres undefined), for which the EC50 was less than 100 nM.
As to `CN(C)C(=O)CC1(O)CC2CC(c3nn(C)c(N)c3C(=O)Nc3ccc(F)c(Cl)c3)CC2C1` (centres undefined), the EC50 is less than 100 nM.
Still for that read-out and setting: the same measure for `Cn1nc([C@@H]2CC3CC(O)(CSCCN4CCOCC4)C[C@H]3C2)c(C(=O)Nc2ccc(F)c(Cl)c2)c1N` (some centres undefined): less than 100 nM; for `CCC1OC[C@]2(CC3C[C@H](c4nn(C)c(N)c4C(=O)Nc4ccc(F)c(Cl)c4)C[C@@H]3C2)O1` (some centres undefined): less than 100 nM.
Same read-out and setting: with `CNC1CC2CC(c3nn(C)c(N)c3C(=O)Nc3ccc(F)c(Cl)c3)CC2C1` (centres undefined) the entry was “in the range around 300 nM”.
On the same count and under the same terms, the same measure for `Cn1nc([C@H]2CC3CC(O)(C[S+]([O-])CC(F)(F)F)C[C@@H]3C2)c(C(=O)Nc2ccc(F)c(Cl)c2)c1N` (some centres undefined): less than 100 nM; for `CCOC(=O)CC1CC2CC(c3nn(C)c(N)c3C(=O)Nc3ccc(F)c(Cl)c3)CC2C1` (centres undefined): less than 100 nM.
In the case of `Cn1nc(C2CC3CC(OC(C)(C)C)CC3C2)c(C(=O)Nc2ccc(F)c(Cl)c2)c1N` (centres undefined), the EC50 is less than 100 nM.
For `Cn1nc([C@@H]2CC3C[S+]([O-])C[C@@H]3C2)c(C(=O)Nc2ccc(F)c(Cl)c2)c1N` (some centres undefined), the EC50 result was “in the range around 5250 nM”.
On the same count and under the same terms, the same measure for `Cn1nc([C@H]2CC3CC(O)(C[S+]([O-])CC(F)(F)F)C[C@H]3C2)c(C(=O)Nc2ccc(F)c(Cl)c2)c1N` (some centres undefined): less than 100 nM.
Same read-out and setting: the same measure for `CCC1OCC2(CC3C[C@H](c4nn(C)c(N)c4C(=O)Nc4ccc(F)c(Cl)c4)C[C@H]3C2)O1` (some centres undefined): less than 100 nM; for `COc1cc(-c2nccn2C)ccc1[C@@H]1CC[C@@H](c2nn(C)c(N)c2C(=O)Nc2ccc(F)c(Cl)c2)C1`: less than 100 nM; for `COc1ccc([C@H]2CC[C@H](c3nn(C)c(N)c3C(=O)Nc3ccc(F)c(Cl)c3)C2)cc1`: less than 100 nM.
The same measure, in the same setting: with `CC(=O)NC1CC2CC(c3nn(C)c(N)c3C(=O)Nc3ccc(F)c(Cl)c3)CC2C1` (centres undefined) the figure was less than 100 nM.
`Cn1nc(C2CC3CC(N4CCNC4=O)CC3C2)c(C(=O)Nc2ccc(F)c(Cl)c2)c1N` (centres undefined): the EC50 was less than 100 nM.
Same read-out and setting: the same measure for `Cn1nc(C2CC3CC(O)(CS(=O)(=O)CCCN4CCNC(=O)C4)CC3C2)c(C(=O)Nc2ccc(F)c(Cl)c2)c1N` (centres undefined): “in the range around 5250 nM”.
On the same count and under the same terms, with `Cn1nc(C2CCN(c3ccccc3)C2)c(C(=O)Nc2ccc(F)c(Cl)c2)c1N` (centres undefined) the entry was “in the range around 300 nM”.
On the same count and under the same terms, the same measure for `CS(=O)(=O)CC1(O)CC2CC(c3n[nH]c(N)c3C(=O)Nc3ccc(F)c(Cl)c3)CC2C1` (centres undefined): less than 100 nM; for `Cn1nc(C2CC3CC(O)(CC(=O)O)CC3C2)c(C(=O)Nc2ccc(F)c(Cl)c2)c1N` (centres undefined): less than 100 nM.
Consider `COc1cc(-c2cnn(C)c2)ccc1C1CCC(c2nn(C)c(N)c2C(=O)Nc2ccc(F)c(Cl)c2)C1` (centres undefined), for which the EC50 entry was “in the range around 300 nM”.
Regarding `CCC1OCC2(CC3C[C@H](c4nn(C)c(N)c4C(=O)Nc4ccc(F)c(Cl)c4)C[C@@H]3C2)O1` (some centres undefined), the EC50 is less than 100 nM.
With `Cn1nc(C2CC3CC(CC(N)=O)CC3C2)c(C(=O)Nc2ccc(F)c(Cl)c2)c1N` (centres undefined), the half-maximal effective concentration (EC50) is less than 100 nM.
On the same count and under the same terms, with `Cn1nc([C@@H]2CC3CC(O)(CS(=O)(=O)C(C)(C)C)C[C@@H]3C2)c(C(=O)Nc2ccc(F)c(Cl)c2)c1N` (some centres undefined) the figure was less than 100 nM.
Still for that read-out and setting: the same measure for `Cn1nc([C@@H]2CC3CC(O)(CS(C)(=O)=O)C[C@@H]3C2)c(C(=O)Nc2ccc(F)c(Cl)c2)c1N` (some centres undefined): less than 100 nM.
On the same count and under the same terms, with `Cn1nc([C@@H]2CC3CC(O)(CN4CCCCC4)C[C@@H]3C2)c(C(=O)Nc2ccc(F)c(Cl)c2)c1N` (some centres undefined) the entry was “in the range around 300 nM”.
With `Cn1nc(C2CC3CC(N4CCOCC4)CC3C2)c(C(=O)Nc2ccc(F)c(Cl)c2)c1N` (centres undefined), the EC50 is less than 100 nM.
On the same count and under the same terms, the same measure for `Cn1nc([C@H]2CC3CC(=NO)C[C@@H]3C2)c(C(=O)Nc2ccc(F)c(Cl)c2)c1N` (some centres undefined): less than 100 nM; for `Cn1nc(C2CC3CN(C(=O)OC(C)(C)C)CC3C2)c(C(=O)Nc2ccc(F)c(Cl)c2)c1N` (centres undefined): less than 100 nM.
As to `Cn1nc(C2CC3CC(N4CCNC(=O)C4)CC3C2)c(C(=O)Nc2ccc(F)c(C#N)c2)c1N` (centres undefined), the EC50 is less than 100 nM.
Still for that read-out and setting: with `Cn1nc([C@@H]2CC3CC(=NO)C[C@@H]3C2)c(C(=O)Nc2ccc(F)c(Cl)c2)c1N` (some centres undefined) the figure was less than 100 nM; with `CCN(CC)C1CC2CC(c3nn(C)c(N)c3C(=O)Nc3ccc(F)c(Cl)c3)CC2C1` (centres undefined), “in the range around 300 nM”; with `Cn1nc(C2CC3CC([S+](C)[O-])CC3C2)c(C(=O)Nc2ccc(F)c(Cl)c2)c1N` (centres undefined), less than 100 nM.
Regarding `Cn1cc(-c2ccc([C@H]3CC[C@@H](c4nn(C)c(N)c4C(=O)Nc4ccc(F)c(Cl)c4)C3)cc2)cn1`, the EC50 was less than 100 nM.
On the same count and under the same terms, with `CC(C)C1(O)CC2C[C@@H](c3nn(C)c(N)c3C(=O)Nc3ccc(F)c(Cl)c3)C[C@H]2C1O` (some centres undefined) the figure was less than 100 nM; with `Cn1nc(C2CC3CC(CCO)CC3C2)c(C(=O)Nc2ccc(F)c(Cl)c2)c1N` (centres undefined), less than 100 nM.
As for `Cn1nc([C@@H]2CC3CC(O)(CS(=O)(=O)CCO)C[C@@H]3C2)c(C(=O)Nc2ccc(F)c(Cl)c2)c1N` (some centres undefined), the EC50 was less than 100 nM.
Same read-out and setting: with `Cn1nc([C@@H]2CC3CC(O)(CS(=O)(=O)C(C)(C)C)C[C@H]3C2)c(C(=O)Nc2ccc(F)c(Cl)c2)c1N` (some centres undefined) the figure was less than 100 nM; with `CN(C1CC2CC(c3nn(C)c(N)c3C(=O)Nc3ccc(F)c(Cl)c3)CC2C1)S(C)(=O)=O` (centres undefined), less than 100 nM.
The same measure, in the same setting: the same measure for `Cn1nc([C@@H]2CC3CC(O)(CSC(C)(C)C)C[C@@H]3C2)c(C(=O)Nc2ccc(F)c(Cl)c2)c1N` (some centres undefined): less than 100 nM; for `Cn1nc([C@@H]2CC3CC(O)(CS(=O)(=O)CCO)C[C@H]3C2)c(C(=O)Nc2ccc(F)c(Cl)c2)c1N` (some centres undefined): less than 100 nM; for `Cn1nc(C2CC3CN(S(C)(=O)=O)CC3C2)c(C(=O)Nc2ccc(F)c(Cl)c2)c1N` (centres undefined): less than 100 nM.
Still for that read-out and setting: the same measure for `Cn1cc([C@@H]2CC[C@H](c3nn(C)c(N)c3C(=O)Nc3ccc(F)c(Cl)c3)C2)cn1`: less than 100 nM.
Take `Cn1nc(C2CCC(c3ccccc3)C2)c(C(=O)Nc2cc(F)c(F)c(Br)c2)c1N` (centres undefined): the EC50 entry is “in the range around 300 nM”.
Still for that read-out and setting: with `Cn1nc(C2CC3CCCC3C2)c(C(=O)Nc2ccc(F)c(Cl)c2)c1N` (centres undefined) the figure was less than 100 nM.
Still for that read-out and setting: with `Cn1nc([C@@H]2CC3CC(O)(CS(=O)(=O)CCCN4CCNCC4=O)C[C@@H]3C2)c(C(=O)Nc2ccc(F)c(Cl)c2)c1N` (some centres undefined) the entry was “in the range around 5250 nM”.
The same measure, in the same setting: the same measure for `Cn1nc(C2CC3CC(O)(COC(F)F)CC3C2)c(C(=O)Nc2ccc(F)c(Cl)c2)c1N` (centres undefined): less than 100 nM.

Values taken from ChEMBL document CHEMBL5729557, “5-membered heteroaryl carboxamide compounds for treatment of HBV” (2023).
